Several values for one entry are separate records, joined by “and”; a condition that tells them apart may be missing. Equal entries are not always repeated.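 Results reflect a 48-hour exposure of cells in 96-well plates to compound at five concentrations. The concentration for 50% growth inhibition is given as GI50. At the TGI there is no net growth.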 Where a SMILES comes first, the peptide text is derived from it. The star is where a group is joined. Boc = CC(C)(C)OC(=O)*
Tests used:
Assay in all cases: inhibition of tumour cell growth, NCI panel, 48 h
COLO 205 colon = test system: COLO 205 colon
SK-OV-3 ovarian = test system: SK-OV-3 ovarian
SNB-75 CNS = test system: SNB-75 CNS
NCI/ADR-RES ovarian = test system: NCI/ADR-RES ovarian
ACHN renal = test system: ACHN renal
OVCAR-5 ovarian = test system: OVCAR-5 ovarian
IGROV1 ovarian = test system: IGROV1 ovarian
DU-145 prostate = test system: DU-145 prostate
HCT-116 colon = test system: HCT-116 colon
RPMI-8226 leukemia = test system: RPMI-8226 leukemia

Compound | GI50 (COLO 205 colon) | TGI (COLO 205 colon) | GI50 (SK-OV-3 ovarian) | TGI (SK-OV-3 ovarian) | GI50 (SNB-75 CNS) | TGI (SNB-75 CNS) | GI50 (NCI/ADR-RES ovarian) | TGI (NCI/ADR-RES ovarian) | GI50 (ACHN renal) | TGI (ACHN renal) | GI50 (OVCAR-5 ovarian) | TGI (OVCAR-5 ovarian) | GI50 (IGROV1 ovarian) | TGI (IGROV1 ovarian) | GI50 (DU-145 prostate) | TGI (DU-145 prostate) | GI50 (HCT-116 colon) | TGI (HCT-116 colon) | GI50 (RPMI-8226 leukemia) | TGI (RPMI-8226 leukemia)
C#Cc1nc(Nc2cc(C)[nH]n2)c2ccccc2n1 | 0.279 µM | 0.674 µM | 3.19 µM | > 100 µM | 0.167 µM | 0.513 µM | 0.402 µM | > 100 µM | 0.257 µM | 1.71 µM | 0.332 µM | 0.995 µM | 0.22 µM | 0.563 µM | 0.396 µM | 1.7 µM | 0.248 µM | 0.951 µM | 0.0835 µM | 0.46 µM
COC(=O)C(C)NC(=O)C(CCSC)NC(=O)C(Cc1ccccc1)NC(=O)OC(C)(C)C (stereo not drawn) (Boc-Phe-Met-Ala-OMe; configuration not given here) | 24.2 µg/mL | 47.4 µg/mL and > 100 µM |  | > 100 µM | 99.7 µg/mL | > 100 µM |  | > 100 µM |  | > 100 µM | 31.6 µg/mL | > 100 µM | 53.5 µg/mL | > 100 µM | 43.7 µg/mL | > 100 µM | 17.1 µg/mL |  | 22.4 µg/mL | 49.5 µg/mL and > 100 µM
CN1CC[C@@H](c2c(O)cc(O)c3c(=O)cc(-c4ccc(C(F)(F)F)cc4Cl)oc23)[C@@H]1CO | 15.1 µM | 32.9 µM | 26.6 µM | 70 µM | 6.89 µM | 22 µM | 19.1 µM | 51.6 µM | 10.6 µM | 38 µM | 14.1 µM | 59.3 µM | 11.8 µM | 38.6 µM | 16.5 µM | 37.7 µM | 11.4 µM | 24.2 µM | 17.3 µM | 53.5 µM
C=CCc1ccc(O)c(-c2ccc(O)c(CC=C)c2)c1 | 18.5 µM | 34.1 µM | 22.1 µM | 50.1 µM | 22.1 µM | > 46.6 µM | 15.3 µM | 33.9 µM | 15.8 µM | 30.6 µM | 16.8 µM | 38.9 µM | 5.67 µM | 49.5 µM | 15.8 µM | 30.9 µM | 20 µM | > 54 µM | 14.6 µM | > 55.9 µM
COC12C(COC(N)=O)C3=C(C(=O)C(C)=C(N)C3=O)N1CC1C2N1C (stereo unspecified) |  | 21.6 µM |  | 49 µM |  | 11.8 µM |  | 268 µM |  | 25.3 µM |  | 63.1 µM |  | 28.6 µM |  | 15.3 µM |  | 32.1 µM |  | > 85.5 µM
Oc1ccc2ccccc2c1N=Nc1ccc(Br)cc1 |  | > 100 µM |  | > 100 µM |  | > 100 µM |  | > 100 µM |  | > 100 µM |  | > 100 µM |  | > 100 µM |  | > 100 µM |  | > 100 µM |  | > 100 µM
Cn1c(Nc2ccc(C(F)(F)F)cc2)nc2cc(Oc3ccnc(-c4ncc(C(F)(F)F)[nH]4)c3)ccc21 | 0.367 µM | 10.6 µM | 0.0385 µM | 19.1 µM | 0.297 µM | 26.2 µM | 1.64 µM | 13.4 µM | 0.0354 µM | 11.7 µM | 1.53 µM | 17.4 µM | 0.0668 µM | 15.4 µM | 2.05 µM | 17.3 µM | 0.0787 µM | 7.06 µM | 1.49 µM | 15.2 µM
CCc1ccc(/C=C/c2ccc(O)c3ncccc23)[n+](C)c1 | 8.07 µM | > 89.8 µM | 26.9 µM | > 100 µM | > 100 µM | > 100 µM | > 100 µM | > 100 µM | > 61.1 µM | > 100 µM | > 100 µM | > 100 µM | 11.4 µM | > 100 µM | 4.96 µM | > 100 µM | 4.02 µM | > 100 µM | 3.08 µM | > 100 µM
CN(C)c1ncnc2c1ncn2CCn1cnc2c(N(C)C)ncnc21 |  | > 100 µM |  | > 100 µM |  | > 100 µM |  | > 100 µM |  | > 100 µM |  | > 100 µM |  | > 100 µM |  | > 100 µM |  | > 100 µM |  | > 100 µM
CC(C(=O)O)c1cccc(Oc2ccccc2)c1 (stereo unspecified) | > 100 µM | > 100 µM | > 100 µM | > 100 µM | > 100 µM | > 100 µM | > 100 µM | > 100 µM | > 100 µM | > 100 µM | > 100 µM | > 100 µM | > 100 µM | > 100 µM | > 100 µM | > 100 µM | > 100 µM | > 100 µM | > 100 µM | > 100 µM
Clc1nc(Cl)nc(Nc2cccc3ccccc23)n1 | > 100 µM | > 100 µM | > 100 µM | > 100 µM | > 100 µM | > 100 µM | > 100 µM | > 100 µM | 92.5 µM | > 100 µM | > 100 µM | > 100 µM | > 100 µM | > 100 µM | > 100 µM | > 100 µM | 47.1 µM | > 100 µM | 39.8 µM | > 100 µM
COc1ccc(-c2cc(/C=C/C(=O)c3ccc(OC)c(OC)c3)[nH]n2)cc1 | 1.76 µM | 3.3 µM | 5.56 µM | 17.1 µM | 1.55 µM | 3.84 µM | 3.44 µM | 24.8 µM | 1.68 µM | 3.83 µM | 1.65 µM | 4.09 µM | 1.57 µM | 3.65 µM | 1.4 µM | 2.81 µM | 1.01 µM | 2.48 µM | 0.32 µM | 1.33 µM
COC(=O)c1ccc2c(c1)/C(=C\c1cc(Br)c(O)c(Br)c1)C(=O)N2 | 6.8 µM | > 25 µM | 6.57 µM | > 25 µM | 5.4 µM | > 25 µM | 15.7 µM | > 25 µM | 6.27 µM | > 25 µM | 13.5 µM | > 25 µM | 7.29 µM | > 25 µM | 7.15 µM | > 25 µM | 8.29 µM | > 25 µM | 5.21 µM | > 25 µM

— PubChem BioAssay (NCI)
